{
  "source": "patent US20060153894A1",
  "about": "“Multi-compartment delivery system” (priority 2004, published 2006)",
  "test_system": "TNF-α secretion from LPS-stimulated PBMC",
  "assay": "TNF-α secretion from LPS-stimulated PBMC with p38 inhibitor loaded in the outer compartment (ELISA)",
  "format": "cell-based, human",
  "conditions": "outer compartments loaded with 10.99 ng, 109.9 ng or 1099 ng, 1×10^6 PBMC on inner compartment, LPS 10 ng/ml overnight",
  "method": "Outer compartments were made from a composite matrix similar to the one prepared in Example 3. The compartments were loaded with three different amounts (10.99 ng, 109.9 ng, or 1099 ng) of p38 kinase inhibitor (JNJ 3026582, also known as RWJ 67657). The chemical structure of this compound (4-[4-(4-fluorophenyl)-1-(3-phenylpropyl)-5-44-pyridinyl)-1H-imidazol-2-yl]-3-butyn-1-ol) has been previously documented (Wadsworth et al., J. Pharm. Exp. Ther 291:680-687, 1999).\nThe inner compartments were prepared from a non-woven Vicryl® fibrous matrix fabricated as described in Example 2. Mononuclear cells were freshly isolated from human peripheral blood, counted and adjusted to a final cell number in RPMI-1640 (Invitrogen Life Technologies, Carlsbad, Calif.) with 1% fetal bovine serum (FBS, HyClone, Logan, UT). A total of 1×10^6 cells in a final volume of 50ul were seeded onto the inner compartments.\nThe two compartments were combined and pre-cultured for 1 hour in a 24-well plate with 0.5 ml culture medium. A stimulus of LPS (lipopolysaccharide) (10 ng/ml; Sigma, St. Louis, Mo.) was added to each well and incubated overnight at 37° C., 5%CO2. Supernatant from each well was collected and analyzed for TNF-α content using a standard commercial ELISA kit (R&D Systems, Minneapolis, Minn.). […]",
  "data": [
    {"compound": "OCCC#Cc1nc(-c2ccc(F)cc2)c(-c2ccncc2)n1CCCc1ccccc1", "note": "[RWJ 67657]", "values": [
      {"measurement": "inhibition of TNF-α secretion", "result": "dose dependent inhibition"},
      {"measurement": "inhibition of TNF-α secretion", "setting": "listed as p38 inhibitor", "result": "inhibited in a dose-dependent manner"}
    ]}
  ]
}
